Assay results: publication PMC2954059 (Journal of medicinal chemistry, 2010)
Like-named read-outs stand apart in the source and are kept apart here. Marks after values point to notes of the source that are not given here.

Assays:
[1] = Concentrations of 1 in mouse serum and tissue samples by LC-MS/MS; format: in vivo, C57BL/6 mice
[2] = format: in vivo, C57BL/6 mice; conditions: 24 mg/kg subcutaneous; for Concentration in the mouse brain: N = 3; for Concentration observed in brain, in molar terms: mouse brain, the quantified mouse (4a 8 h, 4d 2 h)
[3] = biological target: T1, Calpain I from porcine erythrocytes (Sus scrofa, UniProt P35750); test: Calpain I inhibition, fluorogenic Suc-Leu-Tyr-AMC assay, Ki by Dixon plots
T1 sequence (P35750 1-714): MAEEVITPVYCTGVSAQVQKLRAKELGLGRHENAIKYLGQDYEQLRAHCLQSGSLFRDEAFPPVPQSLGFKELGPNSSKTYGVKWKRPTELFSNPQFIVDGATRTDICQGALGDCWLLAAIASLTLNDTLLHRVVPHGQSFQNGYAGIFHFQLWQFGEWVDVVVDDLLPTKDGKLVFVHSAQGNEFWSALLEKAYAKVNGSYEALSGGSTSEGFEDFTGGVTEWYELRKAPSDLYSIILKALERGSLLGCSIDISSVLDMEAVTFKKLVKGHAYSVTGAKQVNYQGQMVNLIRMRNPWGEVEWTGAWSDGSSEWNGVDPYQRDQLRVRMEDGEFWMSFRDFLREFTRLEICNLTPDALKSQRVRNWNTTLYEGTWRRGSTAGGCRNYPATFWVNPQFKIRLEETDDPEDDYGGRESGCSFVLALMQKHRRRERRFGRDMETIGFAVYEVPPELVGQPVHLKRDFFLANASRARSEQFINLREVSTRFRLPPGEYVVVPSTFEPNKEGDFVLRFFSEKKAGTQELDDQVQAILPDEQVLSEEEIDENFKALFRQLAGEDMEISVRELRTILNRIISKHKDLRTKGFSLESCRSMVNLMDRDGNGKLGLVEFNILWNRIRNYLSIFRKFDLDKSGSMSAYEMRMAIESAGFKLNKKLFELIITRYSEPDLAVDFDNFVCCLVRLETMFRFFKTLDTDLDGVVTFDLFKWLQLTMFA
T1 sequence (P04574 1-266 partner): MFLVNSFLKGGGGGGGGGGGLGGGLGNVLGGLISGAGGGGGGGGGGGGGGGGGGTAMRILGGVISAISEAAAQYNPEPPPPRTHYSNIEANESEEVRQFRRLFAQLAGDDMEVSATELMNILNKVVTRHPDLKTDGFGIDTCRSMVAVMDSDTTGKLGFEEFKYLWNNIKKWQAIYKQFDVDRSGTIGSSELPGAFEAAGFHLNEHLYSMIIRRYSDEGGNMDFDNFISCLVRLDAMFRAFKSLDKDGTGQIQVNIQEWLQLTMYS

[4] = biological target: T2, calpain II from porcine kidney (Sus scrofa, UniProt A6YNL5); test: Calpain II inhibition, fluorogenic Suc-Leu-Tyr-AMC assay, Ki by Dixon plots; format: biochemical; conditions: selectivity calpain I over calpain II
T2 sequence (A6YNL5 20-700): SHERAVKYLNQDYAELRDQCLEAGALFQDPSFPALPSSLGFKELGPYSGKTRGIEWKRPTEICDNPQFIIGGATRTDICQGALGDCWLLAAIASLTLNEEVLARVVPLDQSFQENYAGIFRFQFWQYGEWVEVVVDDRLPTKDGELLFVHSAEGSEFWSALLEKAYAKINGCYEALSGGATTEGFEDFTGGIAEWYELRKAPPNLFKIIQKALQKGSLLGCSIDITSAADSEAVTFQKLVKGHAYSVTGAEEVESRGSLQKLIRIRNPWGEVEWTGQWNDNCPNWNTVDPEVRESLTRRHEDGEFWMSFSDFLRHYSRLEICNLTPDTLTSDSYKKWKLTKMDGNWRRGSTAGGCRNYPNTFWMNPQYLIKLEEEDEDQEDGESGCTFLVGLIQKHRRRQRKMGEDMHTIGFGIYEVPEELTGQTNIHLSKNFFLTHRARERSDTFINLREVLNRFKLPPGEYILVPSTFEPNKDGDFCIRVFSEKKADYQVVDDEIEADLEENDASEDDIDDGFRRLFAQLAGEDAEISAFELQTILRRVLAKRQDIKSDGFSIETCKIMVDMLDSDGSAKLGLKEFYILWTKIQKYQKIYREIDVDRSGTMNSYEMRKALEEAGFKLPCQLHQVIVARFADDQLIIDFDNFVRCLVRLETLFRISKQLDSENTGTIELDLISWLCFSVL
T2 sequence (P04574 1-266 partner): T1 sequence (P04574 1-266 partner)

[5] = biological target: Cathepsin B from human liver (Homo sapiens, UniProt P07858); test: Cathepsin B inhibition, fluorogenic Cbz-Arg-Arg-AMC assay, Ki by Dixon plots; format: biochemical

CCC(NC(=O)[C@H](CC(C)C)NC(=O)OCc1ccccc1)C(=O)C(=O)NCCCN1CCOCC1 (stereo partly drawn) [Compound 1, Cbz-Leu-D,L-Abu-CONH-(CH2)3-morpholine]
concentration at 1 h ([1]; female, C57BL/6, mouse, liver, heart, kidney, spleen, other: subcutaneous or intravenous, 24 mg/kg): > 500 ng/g | Bioavailability via subcutaneous or oral administration ([1]; mice, 24 mg/kg): good | Detection in the brain ([1]; mice, 24 mg/kg subcutaneous, intravenous or oral): could not be detected

CCC(NC(=O)[C@H](CC(C)C)NC(=O)OCc1ccccc1)C(=O)C(=O)NCCCn1cnc2c(N)ncnc21 (stereo partly drawn) [Compound 4a, 3-(Benzyloxycarbonyl-L-leucylamino)-N-(3-(6-amino-9H-purin-9-yl)propyl)-2-oxopentanamide]
Concentration in the mouse brain ([2]; 8 hour, numeric value from one mouse, other two NQ): 1.17 ± 0.01 ^b µg/g tissue | Concentration observed in brain, in molar terms [2]: approximately 2 µM

CCC(NC(=O)[C@H](CC(C)C)NC(=O)OCc1ccccc1)C(=O)C(=O)NCCCn1ccc(N)nc1=O (stereo partly drawn) [Compound 4c]
fold less potent than the adenine derivatives [3]: 3- to 8 fold

CCC(NC(=O)[C@H](CC(C)C)NC(=O)OCc1ccccc1)C(=O)C(=O)NCCCN1CCN(C)CC1 (stereo partly drawn) [Compound 4d, 3-(Benzyloxycarbonyl-L-leucylamino)-N-(3-(4-methylpiperazin-1-yl)propyl)-2-oxopentanamide]
Concentration in the mouse brain ([2]; 1 hour): could be detected | Concentration in the mouse brain ([2]; 2 hour, numeric value from one mouse, other two NQ): 1.14 ± 0.02 ^b µg/g tissue | Concentration observed in brain, in molar terms [2]: approximately 2 µM

COc1nc(N)c2ncn(CCCNC(=O)C(=O)C(Cc3ccccc3)NC(=O)[C@H](CC(C)C)NC(=O)OCc3ccccc3)c2n1 (stereo partly drawn) [Compound 5b, 3-(Benzyloxycarbonyl-L-leucylamino)-N-(3-(6-amino-2-methoxy-9H-purin-9-yl)propyl)-2-oxophenylbutanamide]
fold less potent on calpain II than on calpain I [4]: 5 fold

CC(C)C[C@H](NC(=O)OCc1ccccc1)C(=O)NC(Cc1ccccc1)C(=O)C(=O)NCCCn1ccc(N)nc1=O (stereo partly drawn) [Compound 5c]
selectivity for calpain I and calpain II versus cathepsin B [5]: equally potent | fold less potent than the adenine derivatives [3]: 3- to 8 fold

CC(C)C[C@H](NC(=O)OCc1ccccc1)C(=O)NC(Cc1ccccc1)C(=O)C(=O)NCCCN1CCN(C)CC1 (stereo partly drawn) [Compound 5d, 3-(Benzyloxycarbonyl-L-leucylamino)-N-(3-(4-methylpiperazin-1-yl)propyl)-2-oxophenylbutanamide]
selectivity for calpain I and calpain II versus cathepsin B [5]: good selectivity

CC(C)C[C@H](NC(=O)OCc1ccccc1)C(=O)NC(Cc1ccccc1)C(=O)C(=O)NCCCN(C)C (stereo partly drawn) [Compound 5e, 3-(Benzyloxycarbonyl-L-leucylamino)-N-(3-(dimethylamino)propyl)-2-oxophenylbutanamide]
selectivity for calpain I and calpain II versus cathepsin B [5]: good selectivity | fold less potent on calpain II than on calpain I [4]: 3 fold
